Reference: patent US11873291B2, “Quinoline cGAS antagonist compounds” (ImmuneSensor Therapeutics, Inc., priority 2020, dated 2024)

What follows are compounds tested against T1, recombinant human cGAS (aa147-522) (Homo sapiens, UniProt Q8N884) (assay: In vitro inhibition assay of cGAS activity (ATP consumption, KinaseGlo Max)). Conditions: Table 2, read-out: cGAS Inhibition Results IC50.
T1 construct: recombinant human cGAS (aa147-522); His6-SUMO (cleaved yes); made in house; host or cells: E. coli BL21/pLys
T1 sequence (Q8N884 147-522): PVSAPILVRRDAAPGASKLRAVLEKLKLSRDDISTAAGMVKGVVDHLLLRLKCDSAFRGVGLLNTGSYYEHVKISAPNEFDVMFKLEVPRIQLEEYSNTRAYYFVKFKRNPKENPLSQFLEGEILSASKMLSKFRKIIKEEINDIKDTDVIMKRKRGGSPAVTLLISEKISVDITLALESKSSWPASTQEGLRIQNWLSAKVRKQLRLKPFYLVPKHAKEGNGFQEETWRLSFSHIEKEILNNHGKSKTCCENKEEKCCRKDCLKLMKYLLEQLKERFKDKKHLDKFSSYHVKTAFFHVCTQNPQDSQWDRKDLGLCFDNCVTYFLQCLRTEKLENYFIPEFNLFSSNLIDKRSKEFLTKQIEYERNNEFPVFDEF
Format: biochemical
In short: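 IC50 came from plotting % ATP consumption against log compound concentration, with leftover ATP detected by KinaseGlo Max chemiluminescence. Reactions ran 20 min at 37 °C with 1.5 μg/mL human cGAS (aa147-522), 6.6 μM ATP, 0.1 mM GTP and 0.01 mg/mL DNA at pH 7.5.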

Compound	IC50 [nM]
CS(=O)(=O)N[C@@H]1C[C@@H](C(=O)O)N(c2cc(-n3ccnc3)c3ccc(Cl)c(Cl)c3n2)C1 [I-351]	< 2000
Cc1cc(N2CCCC(S(N)(=O)=O)C2)c2ccc(Cl)c(Cl)c2n1 (centres unmarked) [I-317]	> 30000
O=C(O)[C@H]1CCCN1C(=O)C[C@@H]1CCCN1c1cc(-n2ccnc2)c2ccc(Cl)c(Cl)c2n1 [I-386]	< 2000
O=C(O)C1CN(c2cc(-n3ccnc3)c3ccc(Cl)c(Cl)c3n2)CCN1CCO (centres unmarked) [I-81]	< 2000
CN(CCS(N)(=O)=O)c1ccc2ccc(Cl)c(Cl)c2n1 [I-161]	> 30000
O=C(O)[C@H]1CCCN(c2cc(-n3ccnc3)c3ccc(Cl)cc3n2)C1 [I-331]	2000 to 30000
O=C1COc2ccc(S(=O)(=O)NC[C@@H]3CCCN3c3cc(-n4ccnc4)c4ccc(Cl)c(Cl)c4n3)cc2N1 [I-393]	> 30000
Clc1cc2nc(-c3ccccc3)cc(-n3ccnc3)c2cc1Cl [I-50]	< 2000
O=C(O)CNC(=O)[C@@H]1CN(c2cc(-c3cn[nH]c3)c3ccc(Cl)c(Cl)c3n2)CCO1 [I-341]	< 2000
O=C(O)[C@@H]1C[C@@H](C2CCCCC2)CN1c1cc(-c2cn[nH]c2)c2ccc(Cl)c(Cl)c2n1 [I-439]	2000 to 30000
CCN(CCN1CCOCC1)c1cc(-c2cn[nH]c2)c2ccc(Cl)c(Cl)c2n1 [I-212]	2000 to 30000
CC(C)[C@H](CS(=O)(=O)O)Nc1cc(-n2ccnc2)c2ccc(Cl)cc2n1 [I-163]	> 30000
O=S(=O)(O)CC(Cc1ccccc1)Nc1cc(-n2ccnc2)c2ccc(Cl)c(Cl)c2n1 (centres unmarked) [I-162, 2-((7,8-dichloro-4-(1H-imidazol-1-yl)quinolin-2-yl)amino)-3-phenylpropane-1-sulfonic acid]	> 30000
CN(CCC(=O)NCC(=O)O)c1cc(-n2ccnc2)c2ccc(Cl)c(Cl)c2n1 [I-321]	< 2000
O=P(O)(O)CC1CCCN(c2cc(-n3ccnc3)c3ccc(Cl)c(Cl)c3n2)C1 (centres unmarked) [I-114]	2000 to 30000
OC[C@H]1CCCN1c1cc(-n2ccnc2)c2ccc(Cl)c(Cl)c2n1 [I-141]	< 2000
Cc1cc(-n2ccnc2)c2ccc(Cl)c(Cl)c2n1 [I-405, 7,8-dichloro-4-(1H-imidazol-1-yl)-2-methylquinoline]	2000 to 30000
Cc1cc(-c2ccn[nH]2)c2ccc(Cl)c(Cl)c2n1 [I-407]	> 30000
O=C(O)CCNC(=O)[C@H]1CN(c2cc(-c3cn[nH]c3)c3ccc(Cl)c(Cl)c3n2)CCO1 [I-344]	< 2000
NS(=O)(=O)OCC1CCCN(c2cc(-n3ccnc3)c3ccc(Cl)c(Cl)c3n2)C1 (centres unmarked) [I-118]	< 2000
O=C(O)CNc1cc(Cl)nc2c(Cl)c(Cl)ccc12 [I-294]	> 30000
NS(=O)(=O)CCNc1cc(NCC(=O)O)c2ccc(Cl)c(Cl)c2n1 [I-318, (7,8-dichloro-2-((2-sulfamoylethyl)amino)quinolin-4-yl)glycine]	> 30000
CN(CCNS(N)(=O)=O)c1cc(-n2ccnc2)c2ccc(Cl)c(Cl)c2n1 [I-223, N-(2-((7,8-dichloro-4-(1H-imidazol-1-yl)quinolin-2-yl)(methyl)amino)ethyl)aminosulfonamide]	< 2000
Clc1ccc2c(Cl)cc(-c3cn[nH]c3)nc2c1Cl [I-404, 4,7,8-trichloro-2-(1H-pyrazol-4-yl)quinoline]	> 30000
O=C(CO)NC1CCCN(c2cc(-n3ccnc3)c3ccc(Cl)cc3n2)C1 (centres unmarked) [I-106, N-(1-(7-chloro-4-(1H-imidazol-1-yl)quinolin-2-yl)piperidin-3-yl)-2-hydroxyacetamide]	2000 to 30000
Clc1ccc2c(-c3cn[nH]c3)cc(-c3ccccc3)nc2c1 [I-67]	2000 to 30000
CNS(=O)(=O)CCN(C)c1cc(-n2ccnc2)c2ccc(Cl)c(Cl)c2n1 [I-205]	< 2000
NS(=O)(=O)CCNc1cc(-c2cn[nH]c2)c2cc(Cl)cc(Cl)c2n1 [I-264]	< 2000
O=[PH](O)OCC1CCCN(c2cc(-n3ccnc3)c3ccc(Cl)c(Cl)c3n2)C1 (centres unmarked) [I-110]	< 2000
CN(CCCO[PH](=O)O)c1cc(-c2cn[nH]c2)c2ccc(Cl)c(Cl)c2n1 [I-256]	< 2000

Now from value to compound:

IC50 [nM]	Compound
2000 to 30000	O=C(O)CCNc1cc(-n2ccnc2)c2ccc(Cl)cc2n1 [I-182]
> 30000	Cc1cc(NCCS(N)(=O)=O)c2ccc(Cl)c(Cl)c2n1 [I-308]
2000 to 30000	Clc1ccc2c(-n3ccnc3)cc(N3CCOCC3)nc2c1Cl [I-95]
> 30000	CS(=O)(=O)N1CCN(c2cc(-n3ccnc3)c3ccc(Cl)cc3n2)CC1 [I-78, 7-chloro-4-(1H-imidazol-1-yl)-2-(4-(methylsulfonyl)piperazin-1-yl) quinoline]
> 30000	Clc1ccc2c(-n3cncc3C3CC3)cc(-c3ccccc3)nc2c1 [I-65]
< 2000	NS(=O)(=O)OCC1CN(c2cc(-n3ccnc3)c3ccc(Cl)c(Cl)c3n2)CCO1 (centres unmarked) [I-96]
< 2000	CN(CCS(=O)(=O)O)c1cc(-n2ccnc2)c2ccc(Cl)c(Cl)c2n1 [I-159]
2000 to 30000	Brc1ccc2c(-n3ccnc3)cc(-c3cccnc3)nc2c1 [I-384]
2000 to 30000	COC(=O)[C@@H]1C[C@H](O)CN1c1cc(-c2cn[nH]c2)c2ccc(Cl)c(Cl)c2n1 [I-432]
< 2000	NC(=O)CCNc1cc(-c2cn[nH]c2)c2ccc(Cl)c(Cl)c2n1 [I-190]
2000 to 30000	Clc1ccc2c(-n3ccnc3)cc(N3CCC(c4nn[nH]n4)C3)nc2c1 (centres unmarked) [I-155]
> 30000	O=C(O)Cc1ccccc1-c1cc(-n2ccnc2)c2ccc(Cl)cc2n1 [I-14]
2000 to 30000	Clc1ccc2c(-n3ccnc3)cc(N3CCNCC3)nc2c1 [I-76, 7-chloro-4-(1H-imidazol-1-yl)-2-(piperazin-1-yl)quinoline]

Same assay, conditions: Table 3, read-out: cGAS Inhibition Results IC50

Compound	IC50 [nM]
OC[C@@H]1CC(F)(F)CN1c1cc(-n2ccnc2)c2ccc(Cl)c(Cl)c2n1 [I-504]	< 2000
CN(CCNS(=O)(=O)CCC(=O)O)c1cc(-n2ccnc2)c2ccc(Cl)c(Cl)c2n1 [I-617]	< 2000
CN(CCS(=O)(=O)NC1CCCC(C(=O)O)C1)c1cc(-n2ccnc2)c2ccc(Cl)c(Cl)c2n1 (centres unmarked) [I-628]	< 2000
O=C(O)[C@@H]1C[C@H](F)CN1c1cc(-n2ccnc2)c2ccc(Cl)c(Cl)c2n1 [I-466]	< 2000
O=C(O)[C@@H]1SCCN1c1cc(-n2ccnc2)c2ccc(Cl)c(Cl)c2n1 [I-486]	< 2000
COC(=O)[C@@H]1c2ccccc2CN1c1cc(-n2ccnc2)c2ccc(Cl)c(Cl)c2n1 [I-588]	< 2000
O=C(O)CNC(=O)O[C@H]1C[C@@H](C(=O)O)N(c2cc(-n3ccnc3)c3ccc(Cl)c(Cl)c3c2)C1 [I-570, (2S,4S)-4-(((carboxymethyl)carbamoyl)oxy)-1-(7,8-dichloro-4-(1H-imidazol-1-yl)naphthalen-2-yl)pyrrolidine-2-carboxylic acid]	2000 to 30000
CN(CCC(=O)O)C(=O)CCN(C)c1cc(-n2ccnc2)c2ccc(Cl)c(Cl)c2n1 [I-564]	< 2000
O=C(O)[C@@H]1C[C@H](C(F)(F)F)CN1c1cc(-n2ccnc2)c2ccc(Cl)c(Cl)c2n1 [I-508]	< 2000
CN(CC(=O)NCCC(=O)O)c1cc(-n2ccnc2)c2ccc(Cl)c(Cl)c2n1 [I-562]	< 2000
O=C(O)c1ccnn1C[C@@H]1CCCN1c1cc(-n2ccnc2)c2ccc(Cl)c(Cl)c2n1 [I-727, (S)-1-((1-(7,8-dichloro-4-(1H-imidazol-1-yl)quinolin-2-yl)pyrrolidin-2-yl)methyl)-1H-pyrazole-5-carboxylic acid]	< 2000
CC(C)(C)OC(=O)C[C@@H]1CCCN1c1cc(-n2ccnc2)c2ccc(Cl)c(Cl)c2n1 [I-573]	2000 to 30000
NC(=O)CCNC(=O)[C@@H]1CCCN1c1cc(-n2ccnc2)c2ccc(Cl)c(Cl)c2n1 [I-554]	2000 to 30000
CC(C)[C@H](NC(=O)[C@@H]1CCCN1c1cc(-n2ccnc2)c2ccc(Cl)c(Cl)c2n1)C(=O)O [I-550]	2000 to 30000
O=C(O)C12CC(Nc3cc(-n4ccnc4)c4ccc(Cl)c(Cl)c4n3)(C1)C2 [I-513]	< 2000

The next lines start with the values.

IC50 [nM]	Compound
< 2000	CN(CCC(=O)NCCS(N)(=O)=O)c1cc(-n2ccnc2)c2ccc(Cl)c(Cl)c2n1 [I-567]
< 2000	CN(CCS(=O)(=O)N1CCCCC1C(=O)O)c1cc(-n2ccnc2)c2ccc(Cl)c(Cl)c2n1 (centres unmarked) [I-629]
2000 to 30000	COC(=O)[C@@H]1C[C@@H](OCCC(=O)O)CN1c1cc(-n2ccnc2)c2ccc(Cl)c(Cl)c2n1 [I-869]
< 2000	O=C(O)[C@@H]1CSCN1c1cc(-n2ccnc2)c2ccc(Cl)c(Cl)c2n1 [I-485]
2000 to 30000	COC(=O)CO[C@@H]1CCN(c2cc(-n3ccnc3)c3ccc(Cl)c(Cl)c3n2)C1 [I-768]
2000 to 30000	O=C(O)[C@@H]1Cc2ccccc2N1c1cc(-n2ccnc2)c2ccc(Cl)c(Cl)c2n1 [I-476]
2000 to 30000	O=C(O)CCOC(C(=O)O)[C@@H]1CCCN1c1cc(-n2ccnc2)c2ccc(Cl)c(Cl)c2n1 (some centres unmarked) [I-818]
< 2000	O=C(O)Cc1ccc(OC[C@@H]2CCCN2c2cc(-n3ccnc3)c3ccc(Cl)c(Cl)c3n2)cc1 [I-738]
2000 to 30000	NC(=O)CNC(=O)[C@@H]1CCCN1c1cc(-n2ccnc2)c2ccc(Cl)c(Cl)c2n1 [I-608]
< 2000	O=P(O)(O)CCOC[C@@H]1CCCN1c1cc(-n2ccnc2)c2ccc(Cl)c(Cl)c2n1 [I-763, (S)-(2-((1-(7,8-dichloro-4-(1H-imidazol-1-yl)quinolin-2-yl)pyrrolidin-2-yl)methoxy)ethyl)phosphonic acid]
< 2000	O=C(O)C#CC[C@@H]1CCCN1c1cc(-n2ccnc2)c2ccc(Cl)c(Cl)c2n1 [I-819, (S)-4-(1-(7,8-dichloro-4-(1H-imidazol-1-yl)quinolin-2-yl)pyrrolidin-2-yl)but-2-ynoic acid]
2000 to 30000	COc1ccc(OCCCN(c2cc(-n3ccnc3)c3ccc(Cl)c(Cl)c3n2)C(C)C)c(C(=O)O)c1 [I-849]

Same assay, conditions: cGAS Inhibition Results IC50, Table 2

Compound	IC50 [nM]
CCOP(=O)(O)Cc1cc(-n2ccnc2)c2ccc(Cl)c(Cl)c2n1 [I-252, Ethyl hydrogen (7,8-dichloro-4-(1H-imidazol-1-yl)quinolin-2-yl)methylphosphonate]	2000 to 30000
